# Legend:
# [1] = Cytotoxicity against human MT4 cells assessed as reduction in cell viability incubated for 5 days by MTT method; format: toxicity, cell-based; details: time 5 day
# [2] = test system: Human immunodeficiency virus 1; experiment: Antiviral activity against HIV1 IIIB infected in MT4 cells assessed as reduction in virus induced cytopathic effect incubated for 5 days by MTT method; format: functional, organism-based; details: Human immunodeficiency virus 1, IIIB, MT4, 120 h
# [3] = Selectivity index, ratio of CC50 for human MT4 cells to EC50 for antiviral activity against HIV1 IIIB infected in MT4 cells; format: toxicity, cell-based; details: read-out: Ratio CC50/EC50
# [4] = test system: Human immunodeficiency virus 1; experiment: Antiviral activity against HIV1 IIIB harboring L100I mutant infected in MT4 cells assessed as reduction in virus induced cytopathic effect incubated for 5 days by MTT method; format: functional, organism-based; details: Human immunodeficiency virus 1, IIIB, MT4, 120 h
# [5] = test system: Human immunodeficiency virus 1; experiment: Antiviral activity against HIV1 IIIB harboring K103 N mutant infected in MT4 cells assessed as reduction in virus induced cytopathic effect incubated for 5 days by MTT method; format: functional, organism-based; details: Human immunodeficiency virus 1, IIIB, MT4, 120 h
# [6] = test system: Human immunodeficiency virus 1; experiment: Antiviral activity against HIV1 IIIB harboring Y181C mutant infected in MT4 cells assessed as reduction in virus induced cytopathic effect incubated for 5 days by MTT method; format: functional, organism-based; details: Human immunodeficiency virus 1, IIIB, MT4, 120 h
# [7] = test system: Human immunodeficiency virus 1; experiment: Antiviral activity against HIV1 IIIB harboring Y188L mutant infected in MT4 cells assessed as reduction in virus induced cytopathic effect incubated for 5 days by MTT method; format: functional, organism-based; details: Human immunodeficiency virus 1, IIIB, MT4, 120 h
# [8] = test system: Human immunodeficiency virus 1; experiment: Antiviral activity against HIV1 IIIB harboring E138K mutant infected in MT4 cells assessed as reduction in virus induced cytopathic effect incubated for 5 days by MTT method; format: functional, organism-based; details: Human immunodeficiency virus 1, IIIB, MT4, 120 h
# [9] = test system: Human immunodeficiency virus 1; experiment: Antiviral activity against HIV1 IIIB harboring F227L/V106A double mutant infected in MT4 cells assessed as reduction in virus induced cytopathic effect incubated for 5 days by MTT method; format: functional, organism-based; details: Human immunodeficiency virus 1, IIIB, MT4, 120 h
# [10] = test system: Human immunodeficiency virus 1; experiment: Antiviral activity against HIV1 IIIB harboring RES056 mutant infected in MT4 cells assessed as reduction in virus induced cytopathic effect incubated for 5 days by MTT method; format: functional, organism-based; details: Human immunodeficiency virus 1, IIIB, MT4, 120 h
# [11] = target: Human immunodeficiency virus type 1 reverse transcriptase (Human immunodeficiency virus 1) (UniProt Q72547); experiment: Inhibition of HIV-1 reverse transcriptase incubated for 2 hrs in presence of template and viral nucleotides by ELISA relative to control; design: concentration or dose not given beside the values; details: concentration not given here
inhibition [11] [%],Structure (SMILES),CC50 at 120 h [1] [nM],EC50 [2] [nM],selectivity ratio [3],EC50 [4] [nM],EC50 [5] [nM],EC50 [6] [nM],EC50 [7] [nM],EC50 [8] [nM],EC50 [9] [nM],EC50 [10] [nM]
–,O=C1Nc2ccc(Cl)cc2[C@@](C#CC2CC2)(C(F)(F)F)O1 [EFAVIRENZ],> 6350,–,–,–,–,–,–,–,–,–
–,Cc1cc(/C=C/C#N)cc(C)c1Oc1nc(NC2CCN(Cc3cn(CC(=O)NC4CC4)nn3)CC2)nc2c1COC2,118000,5,22800,16,8,33,114,15,275,304
–,Cc1cc(/C=C/C#N)cc(C)c1Oc1nc(NC2CCN(Cc3cn(CC(=O)NC4CC4)nn3)CC2)nc2ccsc12,18200,6,2940,17,–,23,88,26,159,191
51.3,Cc1cc(C#N)cc(C)c1Oc1ccnc(NCCc2cn(Cc3ccc(Cl)cc3)nn2)n1,–,–,–,–,–,–,–,–,–,–
–,CCNC(=O)Cn1cc(CN2CCC(Nc3nccc(Oc4c(C)cc(/C=C/C#N)cc4C)n3)CC2)nn1,20700,1,14800,7,2,7,406,11,164,215
55,Cc1ccccc1Cn1cc(CCNc2nccc(Oc3c(C)cc(C#N)cc3C)n2)nn1,–,–,–,–,–,–,–,–,–,–
–,Cc1ccnc2c1NC(=O)c1cccnc1N2C1CC1 [NEVIRAPINE],> 15000,151,–,–,–,–,–,–,–,> 15000
–,CCNC(=O)Cn1cc(CN2CCC(Nc3nc4c(c(Oc5c(C)cc(/C=C/C#N)cc5C)n3)COC4)CC2)nn1,120000,4,33200,13,6,20,175,22,259,512
–,Cc1cc(/C=C/C#N)cc(C)c1Oc1nc(NC2CCN(Cc3cn(CC(=O)NC4CCOCC4)nn3)CC2)nc2c1COC2,112000,11,10400,21,16,38,159,25,687,385
–,CNC(=O)Cn1cc(CN2CCC(Nc3nc(Oc4c(C)cc(/C=C/C#N)cc4C)c4sccc4n3)CC2)nn1,18400,4,4720,6,5,16,44,14,66,99
–,Cc1cc(/C=C/C#N)cc(C)c1Oc1ccnc(NC2CCN(Cc3cn(CC(N)=O)nn3)CC2)n1,47400,2,21600,30,3,21,729,24,188,547
–,CNC(=O)Cn1cc(CN2CCC(Nc3nc(Oc4c(C)cc(/C=C/C#N)cc4C)c4ccccc4n3)CC2)nn1,18100,5,4020,8,–,18,49,13,257,139
65.3,COC(=O)Cn1cc(CCNc2nccc(Oc3c(C)cc(/C=C/C#N)cc3C)n2)nn1,–,–,–,–,–,–,–,–,–,–
–,Cc1cc(/C=C/C#N)cc(C)c1Oc1nc(NC2CCN(Cc3cn(CC(N)=O)nn3)CC2)nc2ccsc12,16200,5,3000,18,8,32,97,21,94,240
–,Cc1cc(/C=C/C#N)cc(C)c1Oc1ccnc(NC2CCN(Cc3cn(CC(=O)NC4CCOCC4)nn3)CC2)n1,19200,4,4560,19,5,22,522,34,232,190
–,Cc1cc(/C=C/C#N)cc(C)c1Oc1nc(NC2CCN(Cc3cn(CC(N)=O)nn3)CC2)nc2ccccc12,18100,6,3300,17,8,33,81,23,499,187
–,CNC(=O)Cn1cc(CN2CCC(Nc3nc4c(c(Oc5c(C)cc(/C=C/C#N)cc5C)n3)COC4)CC2)nn1,119000,4,31300,17,8,28,179,17,945,805
89.3,Cc1cc(C#N)cc(C)c1Oc1ccnc(NC2CCN(Cc3cn(Cc4ccc(S(N)(=O)=O)cc4)nn3)CC2)n1,–,–,–,–,–,–,–,–,–,–
–,Cc1cc(/C=C/C#N)cc(C)c1Oc1nc(NC2CCN(Cc3cn(CC(N)=O)nn3)CC2)nc2c1COC2,125000,13,9570,37,32,57,419,31,268,2460
–,Cc1cc(/C=C/C#N)cc(C)c1Oc1nc(NC2CCN(Cc3cn(CC(=O)NC4CCOCC4)nn3)CC2)nc2ccccc12,18400,8,2300,15,14,31,55,27,645,161
–,Cc1cc(/C=C/C#N)cc(C)c1Oc1nc(NC2CCN(Cc3cn(CC(=O)NC4CC4)nn3)CC2)nc2ccccc12,22400,5,4150,19,9,41,58,29,546,232
–,CCNC(=O)Cn1cc(CN2CCC(Nc3nc(Oc4c(C)cc(/C=C/C#N)cc4C)c4sccc4n3)CC2)nn1,17500,5,3640,12,6,25,80,33,168,181
–,CNC(=O)Cn1cc(CN2CCC(Nc3nccc(Oc4c(C)cc(/C=C/C#N)cc4C)n3)CC2)nn1,23500,1,19600,10,2,11,551,10,209,262
89.8,Cc1cc(C#N)cc(C)c1Oc1ccnc(NC2CCN(Cc3cn(Cc4ccc(B(O)O)cc4)nn3)CC2)n1,–,–,–,–,–,–,–,–,–,–
69.2,Cc1cc(/C=C/C#N)cc(C)c1Oc1ccnc(NCCc2cn(Cc3ccc(S(N)(=O)=O)cc3)nn2)n1,–,–,–,–,–,–,–,–,–,–
–,CCNC(=O)Cn1cc(CN2CCC(Nc3nc(Oc4c(C)cc(/C=C/C#N)cc4C)c4ccccc4n3)CC2)nn1,23700,5,4230,18,10,33,60,36,927,241
–,Cc1cc(/C=C/C#N)cc(C)c1Oc1nc(NC2CCN(Cc3cn(CC(=O)NC4CCOCC4)nn3)CC2)nc2ccsc12,15600,5,3060,9,4,19,40,20,107,101

Structure (SMILES),inhibition [11] [%],CC50 at 120 h [1] [nM],EC50 [2] [nM],selectivity ratio [3],EC50 [4] [nM],EC50 [5] [nM],EC50 [6] [nM],EC50 [7] [nM],EC50 [8] [nM],EC50 [9] [nM],EC50 [10] [nM]
Cc1cc(C#N)cc(C)c1Oc1nc(Nc2ccc(C#N)cc2)nc(N)c1Br [ETRAVIRINE],52.3,> 4600,–,> 1090,7,3,12,–,4,–,38
Cc1cc(C#N)cc(C)c1Oc1ccnc(NC2CCN(Cc3cn(CC(=O)Nc4ccc(S(C)(=O)=O)cc4)nn3)CC2)n1,93.8,12200,5,2690,228,16,34,260,31,2880,3410
Cc1cc(C#N)cc(C)c1Oc1ccnc(NC2CCN(Cc3cn(Cc4ccccc4C#N)nn3)CC2)n1,91.3,4240,2,2020,231,15,27,366,27,1040,> 4240

# Reference: ChEMBL document CHEMBL5614409, “Discovery of potent HIV-1 NNRTIs by CuAAC click-chemistry-based miniaturized synthesis, rapid screening and structure optimization” (Eur J Med Chem, 2024)
